These results are taken from patent US4308396A, “Thromboxane A2 analogues” (priority 1979, dated 1981).

The structures appear in SMILES notation. pIC50: −log10 of the molar value. Where two headings read alike, the source gives them in different places.

Data set [1] relates to thromboxane synthetase. The experiment in a line: Thromboxane B2 formation in human platelet-rich plasma (radioimmunoassay). It is filed as cell-based. To be noted: 50 μM. As to the method:
(§1) To study the effects of analogues on thromboxane synthesis, rabbit platelets were washed free of plasma, resuspended in buffered saline solution and incubated at 37° C. for 5 minutes with analogues at either 10 μM or 100 μM. Radioactive 1-^14 C-arachidonic acid (0.5 μCi, SA 50 Ci/mol, New England Nuclear, Boston, Mass.) was added and incubation was continued for 15 minutes, lipids were extracted by the method of Folch, J. Biol. Chem. 226, 497 (1957), and subjected to thin layer chromatography. In additional experiments, human platelet-rich plasma was incubated at 37° C. in the aggregometer for 1 minute with analogues. Sodium arachidonate (0.4 mM) was added and incubation was continued for 5 minutes. The samples were decanted into one-tenth vol. 100 mM EDTA, centrifuged for 2 minutes at 15,000 g, and thromboxane B2 in the supernatant was determined by radioimmunoassay.

For data set [2], the target named is Thromboxane Synthetase. The experiment in a line: Thromboxane synthetase inhibition (Table 1). It is filed as biochemical. To be noted: read-out: Inhibits Thromboxane Synthetase, ID50. Here is the method:
as §1

For a further data set, the system named is cat coronary arteries. The data set is described as follows: Cat coronary artery constriction (perfused right coronary artery, constriction induced by endoperoxide analogues). The format is cell-based. To be noted: for inhibition at 0.1 µM: analogue 100 nM. Here is the method:
Thromboxane A2 analogues (up to 4 μl of a 2.5 mM solution in ethanol) were tested for their effects on cat coronary arteries continuously prefused with 10 ml Krebs-Henseleit solution as described below.
Cats of either sex (2.5-3.5 kg) were anesthetized with sodium pentobarbital (30 mg/kg) given intravenously. Hearts were reapidly excised and placed in oxygenated (95% O2 +5% CO2) ice-cold Krebs-Henseleit (K-H) solution of the following millimolar composition: NaCl, 118; KCl, 4.75; CaCl2.H2 O, 2.54; KH2 PO4, 1.19; MgSO4.7H2 O, 1.19; NaHCO3, 12.5; glucose, 10.00. A 20-gauge stainless steel cannula was inserted into the right coronary artery via the coronary ostium. Distal to the cannula, approximately 1 cm of coronary artery was dissected free of surrounding tissue. The section of right coronary artery with the cannula in place was excised from the heart and immediately transferred to a constant flow perfusion apparatus.
(§2) The perfusion apparatus consists of a reservoir containing 20 ml of warm (37° C.) oxygenated (95% O2 +5% CO2) K-H solution which bathes the coronary artery and serves as recirculating perfusate. An increase in perfusion pressure indicates vasoconstriction, whereas a decrease in perfusion pressure signifies vasodilation. Following an initial 1 hr. equilibrium period, vascular responsiveness was established by adding 25 mM KCl. After washing with fresh K-H solution for 20-30 minutes, the preparation achieved a relatively constant low basal tone. Basal perfusion pressure averaged 50±2.5 mm Hg. Fresh K-H dilutions of stock thromboxane analog concentrations were added to the perfusate reservoir in 0.1-0.2 ml volumes. Changes in perfusion pressure in response to thromboxane analogue addition generally plateaus within 5 minutes of administration. Constriction of the arteries was induced by addition of 15 or 30 nM 9,11-azo-prostaglandinendoperoxide (azo-PGH2), or 1 μM 9,11-methanoepoxy-PGH2. These compounds and their effects are described in the following references: Corey et al, PNAS, U.S.A. 72, 3355 (1975); Bundy, G. L., Tetr.Lett, 1957 (1975); Malmsten, C., Life Sci, 18, 169 (1976) and Smith, J. B., et al, in Platelets and Thrombosis, Ed. by Mills, D.C.B. et al, Academic Press, London/N.Y. 1977, pp 83-95. The effect of thromboxane analogues on the release of cathepsin D from the cat liver large granule fraction was determined as described in Lefer, A. M. et al, Science 200, 52 (1978). The effect of thromboxane analogues on the release of cathepsin D from the cat liver large granule fraction was determined as described in Lefer, A. M. et al, Science 200, 52 (1978).

Data set [3] deals with human platelets. The experiment in a line: Effect on the inhibition of ADP-induced platelet aggregation by prostacyclin or prostaglandin D2. It is filed as cell-based. Here is the method: (§3) Platelet aggregation was studied in an aggregometer (Chronolog Corp., Phila., PA) using 0.5 ml citrated human platelet-rich plasma at 35° C. One minute after addition of analogue (up to 2 μl of a 25 mM solution in ethanol) aggregation was initiated by addition of sodium arachidonate (0.3-0.5 mM), ADP (2 μM) collagen (1 μg/ml), epinephrine (50 μM), 9,11-azo-PGH2, (0.1-0.6 μM), 9,11-methanoepoxy-PGH2, (0.3-0.6 μM), or 9,11-epoxy methano-PGH2 (1-3 μM). The analogues were also tested for their effects on the inhibition of ADP-induced aggregation by 2 nM prostacyclin or 20 nM prostaglandin D2.

For the next data set, the system named is Prostacyclin Synthetase. The experiment in a line: Prostacyclin synthetase, sheep vesicular glands, 1-14C-arachidonic acid as substrate. It is filed as biochemical. To be noted: 100 μM; Table 1. As to the method:
The effects of analogues on prostacyclin synthetase were determined using sheep vesicular glands as the enzyme source and 1-^14 C-arachidonic acid as substrate essentially as described by Cottee, F. et al, in Prostaglandins, 14, 413 (1978).

In data set [4] the target is T1, thromboxane synthetase (Oryctolagus cuniculus, UniProt G1TAZ9).
T1 sequence (G1TAZ9 1-530): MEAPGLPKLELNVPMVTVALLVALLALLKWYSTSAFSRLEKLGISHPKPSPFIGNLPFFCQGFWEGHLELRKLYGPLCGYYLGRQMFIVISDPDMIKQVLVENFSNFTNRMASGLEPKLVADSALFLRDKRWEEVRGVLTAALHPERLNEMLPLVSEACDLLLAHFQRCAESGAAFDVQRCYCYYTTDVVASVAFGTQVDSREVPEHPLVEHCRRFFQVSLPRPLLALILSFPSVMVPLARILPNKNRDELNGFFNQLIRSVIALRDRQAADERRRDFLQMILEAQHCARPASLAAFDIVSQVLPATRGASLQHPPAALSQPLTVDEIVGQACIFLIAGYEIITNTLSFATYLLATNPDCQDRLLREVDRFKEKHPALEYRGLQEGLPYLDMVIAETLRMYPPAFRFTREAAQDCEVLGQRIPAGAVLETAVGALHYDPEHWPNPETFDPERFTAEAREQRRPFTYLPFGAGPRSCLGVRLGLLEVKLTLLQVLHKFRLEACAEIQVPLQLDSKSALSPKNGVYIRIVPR
The data set is described as follows: Thromboxane synthesis from 1-14C-arachidonic acid by washed rabbit platelets. The format is cell-based. Here is the method:
as §1

For data set [5], the system named is human platelets. The experiment in a line: Platelet aggregation in citrated human platelet-rich plasma. It is filed as cell-based. As to the method:
as §3

The subject of another data set is cyclooxygenase. The data set is described as follows: Effect on cyclooxygenase, washed rabbit platelets. The format is cell-based. The note with it: inferred from prostaglandin increases. Here is the method:
as §1

The next data set has as its system cat liver lysosomes. The experiment in a line: Release of cathepsin D from cat liver large granule fraction (lysosome stabilization). The format is cell-based. The note with it: 1 μM. As to the method: as §2, with “These compounds and their effects are described in the following references: Corey et al, PNAS, U.S.A. 72, 3355 (1975); Bundy, G. L., Tetr.Lett, 1957 (1975); Malmsten, C., Life Sci, 18, 169 (1976) and Smith, J. B., et al, in Platelets and Thrombosis, Ed. by Mills, D.C.B. et al, Academic Press, London/N.Y. 1977, pp 83-95.” left out, “(1978).” for “(1978). The effect of thromboxane analogues on the release of cathepsin D from the cat liver large granule fraction was determined as described in Lefer, A. M. et al, Science 200, 52 (1978).”

Another data set has as its system blood platelets. The note with it: cited from earlier work; for effect on platelet aggregation: Gorman et al, Fitzpatrick et al.
For data set [6] the following is noted: cited from earlier work.
The subject of data set [7] is smooth muscle, blood vessels. The note with it: cited from earlier work.

For `CCCCCC(O)C=CC1CC2CC(C1CC=CCCCC(=O)O)C2(C)C` (single isomer, unassigned) [III (R^1 =R^2 =OH, 16S), Pinane Thromboxane A2, free acid], the “reduction of thromboxane B2 formation in human platelet-rich plasma” value in the data set on thromboxane synthetase [1] was 50%. Moreover, the pIC50 on Thromboxane Synthetase [2] is 4.30. The pIC50 in the data set on cat coronary arteries (Felis catus, Table 1, read-out: Inhibits Coronary Artery Contraction by Prostaglandin Endoperoxide Analogues, ID50) was 7.00. In the data set with cat coronary arteries (Felis catus, read-out: reduction of constriction induced by 15 nM 9,11-azo-PGH2), the inhibition at 0.1 µM came out at 73%. Also, the inhibition at 0.1 µM in the data set on cat coronary arteries (Felis catus, read-out: reduction of constriction induced by 30 nM 9,11-azo-PGH2) is 50%. Further, the “constriction induced by 30 nM 9,11-azo-PGH2” value with cat coronary arteries (analogue 1 μm) is “abolished”. Besides, in the data set with human platelets [3] (10 μM), the “effect on the inhibition of aggregation by prostaglandin D2” value is listed as “nor did it affect”. Also, in the data set with human platelets [3] (Table 1), the “effect on the Inhibition of Platelet Aggregation by Prostacyclin” value is “no effect” and the “effect on the Inhibition of Platelet Aggregation by Prostaglandin D2” value is on record as “no effect”. In the data set on Prostacyclin Synthetase, the “effect on Prostacyclin Synthetase” value was “no effect”. The inhibition at 10 µM on thromboxane synthetase [4] (10 μM, read-out: inhibition of thromboxane B2 formation from 1-14C-arachidonic acid) is 23%. Moreover, the inhibition at 100 µM at thromboxane synthetase [4] (100 μM, read-out: inhibition of thromboxane B2 formation from 1-14C-arachidonic acid) turned out to be 83%. Further, the “radioactive prostaglandins E2, D2 and F2 α” value on thromboxane synthetase [4] (with thromboxane B2 inhibition) is on record as “corresponding increases”. In the data set with human platelets [5] (10 μM), the “platelet aggregation induced by arachidonic acid” value is “abolished”, the “platelet aggregation induced by collagen” value is “partially inhibited”, the “primary aggregation induced by ADP” value is “did not inhibit” and the “primary aggregation induced by epinephrine” value is “did not inhibit”. In addition, in the data set with human platelets [5] (10 μM), the “second wave of aggregation induced by ADP” value is recorded as “abolished” and the “second wave of aggregation induced by epinephrine” value is on record as “abolished”. The “arachidonic acid-induced aggregation in human platelet-rich plasma” value in the data set with human platelets [5] (50 μM) is “abolished”. Besides, in the data set with human platelets [5] (1-15 μM, dose-dependent), the “aggregation induced by 9,11-azo-PGH2” value is “inhibited”, the “aggregation induced by 9,11-epoxymethano-PGH2” value is “inhibited” and the “aggregation induced by 9,11-methanoepoxy-PGH2” value is “inhibited”. For the same compound, the pIC50 in the data set on human platelets [5] (Homo sapiens, Platelet, Table 1, read-out: Inhibits Aggregation by Prostaglandin Endoperoxide Analogues, ID50) was 5.70. In addition, the effect on cyclooxygenase entry in the data set on cyclooxygenase is listed as “not on cyclooxygenase”. Also, in the data set on cat liver lysosomes (4 experiments), the “inhibition of the release of cathepsin D from cat liver lysosomes” value is listed as “significant inhibition (p<0.005)”. The “Stabilizes Lysosomes” value in the data set with cat liver lysosomes (Table 1) is recorded as “Stabilizes Lysosomes”.
As for `CCCCCC(O)C=CC1CC2CC(C1CC=CCCCC(=O)O)C2(C)C` (single isomer, unassigned) [16R epimer of the analogue III (R^1 =R^2 =--OH), Pinane Thromboxane A2, free acid], in the data set on human platelets [5] (compared with 16S epimer), the “effectiveness as a prostaglandin endoperoxide antagonist, relative to the 16S epimer” value is given as “approximately ten times less effective”.
`CCCCCCC=CC1C2CC(N=N2)C1CC=CCCCC(=O)O` (stereo not shown) [15-deoxy-9,11-azo-PGH2]: the “effect on platelet aggregation” value in the data set on blood platelets is “inhibits platelet aggregation”.
Regarding `CCCCCC(O)C=CC1C(O)CC2OC(=CCCCC(=O)O)CC21` (stereo not drawn) [Prostacyclin, 6,9α-oxido-11α, 15α-dihydroxyprosta (Z) 5, E(13)-dienoic acid], the “half-life under physiological conditions” value in data set [6] (pH 7.4) is recorded as “about 2 minutes”. In addition, the “dilation of blood vessels” value in data set [7] is given as “powerful action as a dilator of blood vessels”. Also, the “effect on platelet aggregates after they have formed” value with blood platelets is given as “destroys platelet aggregates after they have formed”. In addition, the “inhibition of blood platelet aggregation” value in the data set with blood platelets (compared with all prostaglandins discovered to date) was “most potent inhibitor of blood platelet aggregation”.
For the compound `CCCCC[C@H](O)/C=C/[C@H]1O[C@H]2C[C@H](O2)[C@@H]1C/C=C\CCCC(=O)O` [TA2, thromboxane A2], in data set [6] (pH 7.4 and 37° C.), the “half-life under physiological conditions” value is on record as 30 seconds. Also, in [7], the “smooth muscle constricting properties” value is reported as “smooth muscle constricting”. Also, the thrombotic properties result in the data set on blood platelets is “potent thrombotic”.
Take `CCCCCC(O)C=CC1C2CC(N=N2)C1CC=CCCCC(=O)O` (stereo not shown) [9,11-azo-PGH2, 9, 11-azo prostaglandin endoperoxide, reference compound]: the “Mean constriction at 15 nM 9,11-azo-PGH2” value in the data set on cat coronary arteries (15 nM, three experiments) is listed as 32 mm Hg. Further, in the data set on cat coronary arteries (30 nM, three experiments), the “Mean constriction at 30 nM 9,11-azo-PGH2” value is given as 53 mm Hg. Moreover, the “effect on platelet aggregation” value with blood platelets is reported as “has aggregating activity”.
As for `CCCCCC/C=C/C1C2CC(ON2)C1C/C=C\CCCC(=O)O` (stereo not shown) [15-deoxy-9,11-epoxyimino-PGH2], in the data set on blood platelets, the “effect on platelet aggregation” value is reported as “inhibits platelet aggregation”.
